Source: publication PMC10605010, “Immunotechniques for the Group Determination of Macrolide Antibiotics Traces in the Environment Using a Volume-Mediated Sensitivity Enhancement Strategy” (Biosensors, 2023)
Converted amounts (≈) assume the structure as drawn. “And” between values parts separate entries of the source, which are not always exact repeats. Equal entries are not always repeated. Where two headings read alike, the source gives them in different places.

How the values were obtained:
[1] = tested on: anti-BSA-cmoCLA(ae) antibodies; assay: Indirect competitive ELISA (icELISA), variants by coating antigen; assay type: binding, rabbit; conditions: for CR: CLA = 100
Experimental: In present work, we investigated and compared several new-designed and previously established coating antigens, which were adsorbed on the 96-well Costar plates from 0.1 to 3.0 µg/mL solutions in CBB (pH 9.6) overnight at 4 °C. […] Solutions of these analytes (1 pg/mL–1 μg/mL) were added to wells of the plate along with anti-cmoCLA antibody in PBS-T with 1%BSA and incubated for 1 h at 25 °C in plate-shaker ST-3 L (ELMI Ltd. laboratory equipment, Riga, Latvia). GAR-HRP was used to detect antigen-antibody formed complexes for 1 h at 37 °C. The activity of the bound enzyme was detected using TMB-substrate mixture, and the intensity of colored product was read at 450 nm using a LisaScan spectrophotometer (Erba Mannheim, Czech Republic). […] The relative antibody-binding absorbance (B/B0) was determined for each concentration of analyte and used to construct a calibration curve as B/B0 versus the concentration. Structurally related macrolides CLA, ESE, ROX, AZI, DIR, TUL, and OLE were analyzed for their cross-reactions. […] Assay sensitivity, limit of detection (LOD), and working range of the assay were set as values of IC50, IC10, and IC20-IC80 range, respectively.

[2] = tested on: anti-BSA-cmoCLA(ae) antibodies; design: method as in PMID 25256165; conditions: coating antigen GEL-cmoCLA(ae), cited from earlier work; for IC50: homologous; for CR: CLA = 100, recalculated from ref 18
[3] = tested on: antibody to immunogen BSA-cmoERY(ma); design: method as in PMID 25308648; conditions: milk; ERY = 100; cited from earlier work
[4] = tested on: antibody to immunogen BSA-cmoCLA(ae); design: method as in doi:10.1039/C9QM00429G; conditions: milk, cited from earlier work; for CR: CLA = 100
[5] = tested on: antibody to immunogen BSA-cmoCLA(ae); design: method as in PMID 32693204; conditions: breast milk, cited from earlier work; for CR: CLA = 100
[6] = tested on: antibody to immunogen BSA-cmoERY(ma); conditions: milk; ERY = 100; cited from earlier work
[7] = coating antigen OVA-aecAZI(dma)

Q: For `CC[C@H]1OC(=O)[C@H](C)[C@@H](O[C@H]2C[C@@](C)(OC)[C@@H](O)[C@H](C)O2)[C@H](C)[C@@H](O[C@@H]2O[C@H](C)C[C@H](N(C)C)[C@H]2O)[C@](C)(O)C[C@@H](C)CN(C)[C@H](C)[C@@H](O)[C@]1(C)O` [AZI, azithromycin], which IC50 ([1]; coating antigen OVA(pi)-aecAZI) is on record?
A: 0.107 ng/mL (≈ 0.143 nM)

Q: And the CR ([1]; coating antigen OVA(pi)-aecAZI)?
A: 41% and 41.1%

Q: And the IC50 [1, 7]?
A: 1.220 ng/mL (≈ 1.63 nM)

Q: And the CR [1, 7]?
A: 12.9%

Q: What about the IC50 ([1]; coating antigen OVA-aecAZI(ga)) of the same compound?
A: 0.315 ng/mL (≈ 0.421 nM)

Q: What about the CR ([1]; coating antigen OVA-aecAZI(ga)) of the same compound?
A: 13.7%

Q: And the IC50 ([1]; coating antigen OVA-cmoERY(ae))?
A: 1.990 ng/mL (≈ 2.66 nM)

Q: What about the CR ([1]; coating antigen OVA-cmoERY(ae)) of the same compound?
A: 9% and 8.6%

Q: What about the “CR (detectability)” value ([1]; span over all ELISAs utilizing coated AZI conjugates) of the same compound?
A: 13–41%

Q: What about the IC50 [2] of the same compound?
A: 1.63 ng/mL (≈ 2.18 nM)

Q: What about the CR [2] of the same compound?
A: 9% and 8.8%

Q: And the CR [3]?
A: 0.9%

Q: And the CR [4]?
A: 16.2%

Q: What about the CR [5] of the same compound?
A: 5.7%

Q: With `CC[C@H]1OC(=O)[C@H](C)[C@@H](O[C@H]2C[C@@](C)(OC)[C@@H](O)[C@H](C)O2)[C@H](C)[C@@H](O[C@@H]2O[C@H](C)C[C@H](N(C)C)[C@H]2O)[C@](C)(OC)C[C@@H](C)C(=O)[C@H](C)[C@@H](O)[C@]1(C)O` [CLA, clarithromycin] as the compound, how does the IC50 ([1]; coating antigen OVA(pi)-aecAZI) read?
A: 0.044 ng/mL (≈ 0.0588 nM)

Q: What about the CR ([1]; coating antigen OVA(pi)-aecAZI) of the same compound?
A: 100%

Q: What about the IC50 [1, 7] of the same compound?
A: 0.157 ng/mL (≈ 0.21 nM)

Q: What about the CR [1, 7] of the same compound?
A: 100%

Q: What about the IC50 ([1]; coating antigen OVA-aecAZI(ga)) of the same compound?
A: 0.043 ng/mL (≈ 0.0575 nM)

Q: And the CR ([1]; coating antigen OVA-aecAZI(ga))?
A: 100%

Q: And the IC50 ([1]; coating antigen OVA-cmoERY(ae))?
A: 0.172 ng/mL (≈ 0.23 nM)

Q: And the CR ([1]; coating antigen OVA-cmoERY(ae))?
A: 100%

Q: What about the IC50 [2] of the same compound?
A: 0.16 ng/mL (≈ 0.214 nM)

Q: And the CR [2]?
A: 100%

Q: And the CR [3]?
A: 26.7%

Q: What about the CR [4] of the same compound?
A: 100%

Q: And the IC50 [4]?
A: 0.16 ng/mL (≈ 0.214 nM)

Q: And the LOD [4]?
A: 0.095 ng/mL

Q: And the CR [5]?
A: 100%

Q: What about the IC50 [5] of the same compound?
A: 0.45 ng/mL (≈ 0.602 nM)

Q: And the LOD [5]?
A: 0.12 ng/mL

Q: What about the CR [6] of the same compound?
A: 26.7%

Q: Which results are given for `CC[C@H]1OC(=O)[C@H](C)[C@@H](O[C@H]2C[C@@](C)(OC)[C@@H](O)[C@H](C)O2)[C@H](C)[C@@H](O[C@@H]2O[C@H](C)C[C@H](N(C)C)[C@H]2O)[C@](C)(O)C[C@@H](C)[C@@H]2N[C@@H](COCCOC)O[C@H]([C@H]2C)[C@]1(C)O` [DIR, dirithromycin]?
A: IC50 ([1]; coating antigen OVA(pi)-aecAZI): 0.096 ng/mL (≈ 0.115 nM); CR ([1]; coating antigen OVA(pi)-aecAZI): 45.8%; IC50 [1, 7]: 0.544 ng/mL (≈ 0.651 nM); CR [1, 7]: 28.9%; IC50 ([1]; coating antigen OVA-aecAZI(ga)): 0.136 ng/mL (≈ 0.163 nM); CR ([1]; coating antigen OVA-aecAZI(ga)): 31.6%; IC50 ([1]; coating antigen OVA-cmoERY(ae)): 0.554 ng/mL (≈ 0.663 nM); CR ([1]; coating antigen OVA-cmoERY(ae)): 31%; CR [3]: 157%; CR [5]: 5.4%; CR [6]: 157%

Q: With `CCOC(=O)CCC(=O)O[C@H]1[C@H](O[C@@H]2[C@@H](C)[C@H](O[C@H]3C[C@@](C)(OC)[C@@H](O)[C@H](C)O3)[C@@H](C)C(=O)O[C@H](CC)[C@@](C)(O)[C@H](O)[C@@H](C)C(=O)[C@H](C)C[C@@]2(C)O)O[C@H](C)C[C@@H]1N(C)C` [ESE, erythromycin ethyl succinate] as the compound, how does the IC50 ([1]; coating antigen OVA(pi)-aecAZI) read?
A: 0.074 ng/mL

Q: And the CR ([1]; coating antigen OVA(pi)-aecAZI)?
A: 59.5%

Q: What about the IC50 [1, 7] of the same compound?
A: 0.352 ng/mL

Q: And the CR [1, 7]?
A: 44.6%

Q: And the IC50 ([1]; coating antigen OVA-aecAZI(ga))?
A: 0.094 ng/mL

Q: And the CR ([1]; coating antigen OVA-aecAZI(ga))?
A: 45.7%

Q: What about the IC50 ([1]; coating antigen OVA-cmoERY(ae)) of the same compound?
A: 0.466 ng/mL

Q: And the CR ([1]; coating antigen OVA-cmoERY(ae))?
A: 37% and 36.9%

Q: What about the CR [6] of the same compound?
A: 43.7%

Q: Which IC50 ([1]; coating antigen OVA(pi)-aecAZI) does the source give for `CO[C@H]1C[C@H](O[C@H]2[C@H](C)[C@@H](O[C@@H]3O[C@H](C)C[C@H](N(C)C)[C@H]3O)[C@@H](C)C[C@@]3(CO3)C(=O)[C@H](C)[C@@H](O)[C@@H](C)[C@@H](C)OC(=O)[C@@H]2C)O[C@@H](C)[C@@H]1O` [OLE, oleandomycin] here?
A: 45.64 ng/mL (≈ 66.3 nM)

Q: What about the CR ([1]; coating antigen OVA(pi)-aecAZI) of the same compound?
A: 0.1%

Q: And the IC50 [1, 7]?
A: 287.2 ng/mL (≈ 418 nM)

Q: What about the CR [1, 7] of the same compound?
A: 0.05%

Q: And the IC50 ([1]; coating antigen OVA-aecAZI(ga))?
A: 40.10 ng/mL (≈ 58.3 nM)

Q: What about the CR ([1]; coating antigen OVA-aecAZI(ga)) of the same compound?
A: 0.11%

Q: What about the IC50 ([1]; coating antigen OVA-cmoERY(ae)) of the same compound?
A: 75.75 ng/mL (≈ 110 nM)

Q: What about the CR ([1]; coating antigen OVA-cmoERY(ae)) of the same compound?
A: 0.2%

Q: Which IC50 ([1]; coating antigen OVA(pi)-aecAZI) does the source give for `CC[C@H]1OC(=O)[C@H](C)[C@@H](O[C@H]2C[C@@](C)(OC)[C@@H](O)[C@H](C)O2)[C@H](C)[C@@H](O[C@@H]2O[C@H](C)C[C@H](N(C)C)[C@H]2O)[C@](C)(O)C[C@@H](C)/C(=N\OCOCCOC)[C@H](C)[C@@H](O)[C@]1(C)O` [ROX, roxithromycin] here?
A: 0.051 ng/mL (≈ 0.0609 nM)

Q: What about the CR ([1]; coating antigen OVA(pi)-aecAZI) of the same compound?
A: 86.3%

Q: What about the IC50 [1, 7] of the same compound?
A: 0.157 ng/mL (≈ 0.188 nM)

Q: What about the CR [1, 7] of the same compound?
A: 100%

Q: And the IC50 ([1]; coating antigen OVA-aecAZI(ga))?
A: 0.040 ng/mL (≈ 0.0478 nM)

Q: What about the CR ([1]; coating antigen OVA-aecAZI(ga)) of the same compound?
A: 107.5%

Q: And the IC50 ([1]; coating antigen OVA-cmoERY(ae))?
A: 0.125 ng/mL (≈ 0.149 nM)

Q: And the CR ([1]; coating antigen OVA-cmoERY(ae))?
A: 137.6%

Q: What about the IC50 [2] of the same compound?
A: 0.14 ng/mL (≈ 0.167 nM)

Q: And the CR [2]?
A: 125%

Q: And the CR [3]?
A: 14.8%

Q: What about the CR [4] of the same compound?
A: 21.1%

Q: What about the CR [5] of the same compound?
A: 97.8%

Q: And the CR [6]?
A: 92%

Q: Which results are given for `CCCNC[C@]1(O)[C@H](C)O[C@@H](O[C@H]2[C@H](C)[C@@H](O[C@@H]3O[C@H](C)C[C@H](N(C)C)[C@H]3O)[C@](C)(O)C[C@@H](C)CN[C@H](C)[C@@H](O)[C@](C)(O)[C@@H](CC)OC(=O)[C@@H]2C)C[C@@]1(C)OC` [TUL, tulathromycin]?
A: IC50 ([1]; coating antigen OVA(pi)-aecAZI): 5.403 ng/mL (≈ 6.7 nM); CR ([1]; coating antigen OVA(pi)-aecAZI): 0.81%; IC50 [1, 7]: 379.5 ng/mL (≈ 471 nM); CR [1, 7]: 0.04%; IC50 ([1]; coating antigen OVA-aecAZI(ga)): 134.8 ng/mL (≈ 167 nM); CR ([1]; coating antigen OVA-aecAZI(ga)): 0.03%; IC50 ([1]; coating antigen OVA-cmoERY(ae)): 629.9 ng/mL (≈ 781 nM)
